Test results taken from US20220133740A1, “VALPROIC ACID COMPOUNDS AND WNT AGONISTS FOR TREATING EAR DISORDERS” (Frequency Therapeutics, Inc., priority 2019, published 2022).
Entries after “also recorded” stand apart in the source; their conditions may differ. Read-outs that look alike come from different tables or passages of the source.

What was measured:
GSK3-beta = GSK3-beta (Homo sapiens, UniProt P49841); details: cited from earlier work
GSK3-alpha [1] = target: T1, GSK3-alpha (Homo sapiens, UniProt P49840); details: cited from earlier work; for GSK-3 alpha: Table 5
GSK3-alpha [2] = target: T1, GSK3-alpha; assay: GSK3-alpha inhibitor potency (Tables 2 and 5); type: biochemical
Lgr5+ cells = assay: Lgr5+ Assay; type: cell-based; details: Table 5
[3] = Perilymph valproic acid after systemic plus local administration versus local-only administration; type: in vivo; details: guinea pig, i.v. 25 mg/mL sodium valproate plus 20 μL poloxamer formulation (sodium valproate 88.63 mg/mL, CHIR99021 3.14 mg/mL) at round window niche, perilymph at 3 hours; FIG. 4
[4] = Blood/plasma valproic acid levels after intravenous sodium valproate; type: in vivo; details: guinea pig, i.v. 100 mg/mL sodium valproate at 20 μL/min for 60 minutes (120 mg, about 330 mg/kg); FIG. 2A
[5] = Perilymph valproic acid along the cochlea (sequential apical sampling) after systemic sodium valproate; type: in vivo; details: guinea pig, perilymph at 3 hours, therapeutic level as determined in vitro on primary cochlear Lgr5 cells

Chain of GSK3-beta (P49841 whole entry): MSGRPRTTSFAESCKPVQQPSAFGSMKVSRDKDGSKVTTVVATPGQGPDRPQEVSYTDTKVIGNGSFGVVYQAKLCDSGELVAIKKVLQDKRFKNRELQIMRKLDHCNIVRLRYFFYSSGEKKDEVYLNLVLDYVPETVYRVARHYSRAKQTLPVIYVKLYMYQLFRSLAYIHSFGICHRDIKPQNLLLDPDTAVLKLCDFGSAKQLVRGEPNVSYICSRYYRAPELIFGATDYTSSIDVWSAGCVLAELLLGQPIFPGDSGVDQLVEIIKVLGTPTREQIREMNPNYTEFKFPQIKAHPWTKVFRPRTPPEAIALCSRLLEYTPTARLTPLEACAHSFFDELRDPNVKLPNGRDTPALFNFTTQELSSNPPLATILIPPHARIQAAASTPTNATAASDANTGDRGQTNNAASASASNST
T1 sequence (P49840 whole entry): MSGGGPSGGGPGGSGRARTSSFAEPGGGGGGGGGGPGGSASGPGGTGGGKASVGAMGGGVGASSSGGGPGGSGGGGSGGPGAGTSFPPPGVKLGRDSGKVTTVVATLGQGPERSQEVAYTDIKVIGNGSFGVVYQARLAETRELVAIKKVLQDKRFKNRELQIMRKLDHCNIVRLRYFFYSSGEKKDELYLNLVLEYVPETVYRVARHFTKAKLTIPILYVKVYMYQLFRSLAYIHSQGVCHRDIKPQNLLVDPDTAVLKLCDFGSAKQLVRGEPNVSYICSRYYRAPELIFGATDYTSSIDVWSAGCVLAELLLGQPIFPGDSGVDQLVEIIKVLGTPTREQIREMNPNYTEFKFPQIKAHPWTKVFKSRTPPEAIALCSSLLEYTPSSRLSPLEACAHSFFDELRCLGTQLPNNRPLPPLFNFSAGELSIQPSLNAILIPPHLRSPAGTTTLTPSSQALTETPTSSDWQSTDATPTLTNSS

| Compound | Potency (nM) GSK3-beta (GSK3-beta; Table 2) | Potency (nM) GSK3-alpha (GSK3-alpha [1]; Table 2) | other results |
| --- | --- | --- | --- |
| carbonyl(η^5-2,4-cyclopentadien-1-yl)(9-hydroxypyrido[2,3-a]pyrrolo[3,4-c]carbazole-5,7(1H,6H)-dionato-κN^1,κN^12)-Ruthenium [(R)-DW12] | 1 nM | 0.5 nM | – |
| CC1(C)CC(=O)C2=C(C1)Nc1n[nH]c(C(F)(F)F)c1[C@]2(C)c1ccccc1 [BRD1652, N-4,7,7-trimethyl-4-phenyl-3-(trifluoromethyl)-2,4,6,7,8,9-hexahydro-5H-pyrazolo[3,4-b]quinolin-5-one] | 4 nM | 0.4 nM | – |
| COc1ccccc1[C@@H]1C2=C(CC(C)(C)CC2=O)N=C2NNC(C(F)(F)F)=C21 [BRD1172, (R)-4-(2-methoxyphenyl)-7,7-dimethyl-3-(trifluoromethyl)-1,2,4,6,7,8-hexahydro-5H-pyrazolo[3,4-b]quinolin-5-one] | – | – | Potency (nM) GSK3-beta (GSK3-beta): 10 nM; Ratio of alpha to beta (GSK3-alpha [2]): 3.3; Potency (nM) GSK3-alpha (GSK3-alpha [1]): 3 nM |
| COc1ccc(-c2cnc3[nH]cc(/C=C/C(=O)NCc4ccncc4)cc2-3)cc1 [Compound 27, (E)-3-(3-(4-methoxyphenyl)-7H-pyrrolo[2,3-b]pyridin-5-yl)-N-(pyridin-4-ylmethyl)acrylamide] | 140 nM | 42 nM | – |
| CO[C@H]1CC[C@H](NC(=O)c2n[nH]cc2NC(=O)C2CCC(F)(F)CC2)CC1 [Compound 4a, 4-(4,4-difluorocyclohexane-1-carboxamido)-N-((1r,4r)-4-metboxycyclohexyl)-1H-pyrazole-3-carboxamide] | 8 nM | – | – |
| O=C1NC(=O)C(c2cnc3ccccn23)=C1c1cn2c3c(cc(F)cc13)CN(C(=O)N1CCCCC1)CC2 [LY2090314, 3-(9-fluoro-2-(piperidine-1-carbonyl)-1,2,3,4-tetrahydro-[1,4]diazepino[6,7,1-hi]indol-7-yl)-4-(imidazo[1,2-a]pyridin-3-yl)-1H-pyrrole-2,5-dione] | – | – | GSK3-beta potency (GSK3-beta; Table 5): 0.9 nM; GSK-3 alpha (GSK3-alpha [1]): 2.1 nM; Lgr5 + Assay (Lgr5+ cells): 0.005 to 0.02 µM |
| Cc1[nH]nc2c1C(c1cccc(F)c1)C1=C(CC(C)(C)CC1=O)N2 (stereo not drawn) [Compound 9, 4-(3-fluorophenyl)-3,7,7-trimethyl-2,4,6,7,8,9-hexahydro-5H-pyrazolo[3,4-b]quinolin-5-one] | 156 nM | 62 nM | – |
| Cc1ccc(C(=O)Nc2c[nH]nc2C(=O)NCCCOC(C)C)cn1 [GSK-3 Inhibitor XXII, 6-methyl-N-[3-[[3-(1-methylethoxy)propyl]carbamoyl]-1H-pyrazol-4-yl]pyridine-3-carboxamide] | – | 2.3 nM | GSK-3 alpha (GSK3-alpha [1]): 2.3 nM; Lgr5 + Assay (Lgr5+ cells): 0.2 to 1 µM |
| Cc1cnc(-c2cnc(NCCNc3ccc(C#N)cn3)nc2-c2ccc(Cl)cc2Cl)[nH]1 [CHIR99021, 6-[[2-[[4-(2,4-dichlorophenyl)-5-(5-methyl-1H-imidazol-2-yl)-2-pyrimidinyl]amino]ethyl]amino]-3-pyridinecarbonitrile] | – | – | Lgr5 + Assay (Lgr5+ cells): 2 to 6 µM |
| CCCC(CCC)C(=O)O [Valproic Acid, 2-propyl pentanoic acid] | – | – | perilymph valproic acid distribution and retention, systemic plus local versus local-only administration [3]: improved the drug distribution and retention in guinea pig cochlea |
| O=C1NC(=O)[C@@H](c2cn3c4c(cccc24)CCC3)[C@@H]1c1c[nH]c2ccccc12 [Tivantinib, (3R,4R)-3-(5,6-dihydro-4H-pyrrolo[3,2,1-ij]quinolin-1-yl)-4-(1H-indol-3-yl)pyrrolidine-2,5-dione] | 1865 nM | 659 nM | – |
| CCCC(CCC)C(=O)[O-].[Na+] [Sodium Valproate, sodium 2-propylpentanoate] | – | – | time at which plasma levels peaked [4]: ≤ 1 h; distribution and level of valproate in cochlear perilymph ([5]; i.v. 25 mg/mL sodium valproate at 20 μL/min for 60 min (about 26 mg valproate)): did not achieve therapeutic levels; distribution and level of valproate in cochlear perilymph (apex to base, serial samples 1-4) ([5]; i.v. 100 mg/mL sodium valproate at 20 μL/min for 60 min): Uniform distribution of valproate was observed throughout the cochlea at 3 hours; also recorded: uniform distribution and therapeutic levels |
| Cc1ccccc1C1C2=C(CC(C)(C)CC2=O)Nc2n[nH]c(C)c21 (stereo not drawn) [Compound 11, 3,7,7-trimethyl-4-(o-tolyl)-2,4,6,7,8,9-hexahydro-5H-pyrazolo[3,4-b]quinolin-5-one] | 102 nM | 32 nM | – |
| N#Cc1ccc2c(c1)/C(=C1\C=CC(CN3CCOCC3)=CN1)C(=O)N2 [AZD1080, (Z)-3-(5-(morpholinomethyl)pyridin-2(1H)-ylidene)-2-oxoindoline-5-carbonitrile] | – | 6.9 nM | GSK-3 alpha (GSK3-alpha [1]): 6.9 nM; Lgr5 + Assay (Lgr5+ cells): 1 to 5 µM |
| CO[C@H]1CC[C@H](NC(=O)c2n[nH]cc2NC(=O)c2ncoc2-c2ccccc2)CC1 [Compound 4z, N-(3-(((1r,4r)-4-methoxycyclohexyl)carbamoyl)-1H-pyrazol-4-yl)-5-phenyloxazole-4-carboxamide] | 5 nM | – | – |
| O=C(O)COc1ccc(Nc2ncc3nnn(-c4ccccc4)c3n2)cc1 [Compound 92, 2-(4-((3-phenyl-3H-[1,2,3]triazolo[4,5-d]pyrimidin-5-yl)amino)phenoxy)acetic acid] | 13 nM | 9 nM | – |
| c1ccc(Nc2ncc3nnn(-c4ccccc4)c3n2)cc1 [Compound 90, N,3-diphenyl-3H-[1,2,3]triazolo[4,5-d]pyrimidin-5-amine] | 628 nM | 330 nM | – |
| (3-aminopyrido[2,3-a]pyrrolo[3,4-c]carbazole-5,7(1H,6H)-dionato-κN^1,κN^12)carbonylchloro(2-pyridinemethanamine-κN^1,κN^2)-, (OC-6-24-A)-Ruthenium [lambda-OS1] | 6 nM | 0.9 nM | – |
| CO[C@H]1CC[C@H](NC(=O)c2n[nH]cc2NC(=O)c2ccc(N3CCN(C)CC3)cc2)CC1 [Compound 4t, N-((1r,4r)-4-methoxycyclohexyl)-4-(4-(4-methylpiperazin-1-yl)benzamido)-1H-pyrazole-3-carboxamide] | <5 nM | – | – |
| Cn1cc(C2=C(c3cccc(N)c3)C(=O)NC2=O)c2ccccc21 [Compound 3, 3-(3-aminophenyl)-4-(1-methyl-1H-indol-3-yl)-1H-pyrrole-2,5-dione] | 10 nM | 3 nM | – |
| Cc1[nH]nc2c1[C@](C)(c1ccccc1)C1=C(CC(C)(C)CC1=O)N2 [Compound 16, (S)-3,4,7,7-tetramethyl-4-phenyl-2,4,6,7,8,9-hexahydro-5H-pyrazolo[3,4-b]quinolin-5-one] | 26 nM | 8 nM | – |
